Measurements from ChEMBL document CHEMBL1128848, “The asymmetric synthesis of both enantiomers of eliprodil” (1995).

Test system: Rattus norvegicus
Assay: Neuroprotective activity (1 mg/kg) administered intravenously was evaluated in rat model of focal cerebral ischemia induced by permanent occlusion of the middle cerebral artery(MCA)
Type: functional

SMILES	Infarct volume
O[C@H](CN1CCC(Cc2ccc(F)cc2)CC1)c1ccc(Cl)cc1	58.9 mm³
O[C@@H](CN1CCC(Cc2ccc(F)cc2)CC1)c1ccc(Cl)cc1	37.7 mm³
OC(CN1CCC(Cc2ccc(F)cc2)CC1)c1ccc(Cl)cc1 (racemic) [ELIPRODIL]	33.3 mm³
